Laboratory results: PubChem BioAssay AID1259407 (Chemical Carcinogenesis Research Information System (CCRIS), 2018)
Active and inactive are the calls of the source. How the calls were made is not given here.

System: CCRIS mutagenicity, Ames/micronucleus/aberration tests
Test: CCRIS mutagenicity studies
[1] = Test System: AMES SALMONELLA TYPHIMURIUM, Strain/Indicator: TA98, Metabolic Activation: NONE, Method: STANDARD PLATE
[2] = Test System: AMES SALMONELLA TYPHIMURIUM, Strain/Indicator: TA100, Metabolic Activation: NONE, Method: PREINCUBATION
[3] = Test System: AMES SALMONELLA TYPHIMURIUM, Strain/Indicator: TA98, Metabolic Activation: NONE, Method: PREINCUBATION

## COc1ccc2[nH]cc(CCNC(C)=O)c2c1
Test System: AMES SALMONELLA TYPHIMURIUM, Strain/Indicator: TA97, Metabolic Activation: NONE, Method: STANDARD PLATE
  mutagenic call: inactive; negative
Test System: AMES SALMONELLA TYPHIMURIUM, Strain/Indicator: TA97, Metabolic Activation: RAT, LIVER, S-9, AROCLOR 1254, Method: STANDARD PLATE
  mutagenic call: inactive; negative
Test System: AMES SALMONELLA TYPHIMURIUM, Strain/Indicator: TA97A, Metabolic Activation: NONE, Method: STANDARD PLATE
  mutagenic call: inactive; negative
Test System: AMES SALMONELLA TYPHIMURIUM, Strain/Indicator: TA97A, Metabolic Activation: RAT LIVER S-9, PHENOBARBITOL/BETA-NAPHTHOFLAVONE, Method: STANDARD PLATE
  mutagenic call: inactive; negative
[1]
  mutagenic call: inactive; negative
Test System: AMES SALMONELLA TYPHIMURIUM, Strain/Indicator: TA98, Metabolic Activation: RAT LIVER S-9, PHENOBARBITOL/BETA-NAPHTHOFLAVONE, Method: STANDARD PLATE
  mutagenic call: inactive; negative
Test System: AMES SALMONELLA TYPHIMURIUM, Strain/Indicator: TA98, Metabolic Activation: RAT, LIVER, S-9, AROCLOR 1254, Method: STANDARD PLATE
  mutagenic call: inactive; negative
[2]
  mutagenic call: inactive; negative
Test System: AMES SALMONELLA TYPHIMURIUM, Strain/Indicator: TA100, Metabolic Activation: NONE, Method: STANDARD PLATE
  mutagenic call: inactive; negative
Test System: AMES SALMONELLA TYPHIMURIUM, Strain/Indicator: TA100, Metabolic Activation: RAT LIVER S-9, PHENOBARBITOL/BETA-NAPHTHOFLAVONE, Method: PREINCUBATION
  mutagenic call: inactive; negative
Test System: AMES SALMONELLA TYPHIMURIUM, Strain/Indicator: TA100, Metabolic Activation: RAT LIVER S-9, PHENOBARBITOL/BETA-NAPHTHOFLAVONE, Method: STANDARD PLATE
  mutagenic call: inactive; negative
Test System: AMES SALMONELLA TYPHIMURIUM, Strain/Indicator: TA100, Metabolic Activation: RAT, LIVER, S-9, AROCLOR 1254, Method: STANDARD PLATE
  mutagenic call: inactive; negative
Test System: AMES SALMONELLA TYPHIMURIUM, Strain/Indicator: TA1535, Metabolic Activation: NONE, Method: STANDARD PLATE
  mutagenic call: inactive; negative
Test System: AMES SALMONELLA TYPHIMURIUM, Strain/Indicator: TA1535, Metabolic Activation: RAT LIVER S-9, PHENOBARBITOL/BETA-NAPHTHOFLAVONE, Method: STANDARD PLATE
  mutagenic call: inactive; negative
Test System: E.COLI, Strain/Indicator: WP2/UVRA, Metabolic Activation: NONE, Method: STANDARD PLATE
  mutagenic call: inactive; negative
Test System: E.COLI, Strain/Indicator: WP2/UVRA, Metabolic Activation: RAT LIVER S-9, PHENOBARBITOL/BETA-NAPHTHOFLAVONE, Method: STANDARD PLATE
  mutagenic call: inactive; negative

## Cc1ccccc1-c1nc2ccccc2o1
[1]
  mutagenic call: inactive; negative
Test System: AMES SALMONELLA TYPHIMURIUM, Strain/Indicator: TA98, Metabolic Activation: S-9, Method: STANDARD PLATE
  mutagenic call: inactive; negative

## Nc1c2cc([N+](=O)[O-])ccc2nc2ccc([N+](=O)[O-])cc12
Test System: AMES SALMONELLA TYPHIMURIUM, Strain/Indicator: TA1537, Metabolic Activation: NONE
  mutagenic call: active; positive

## O=Cc1c(O)cc2c(c1O)C(=O)c1ccccc1C2=O
[3]
  mutagenic call: inactive; negative
Test System: AMES SALMONELLA TYPHIMURIUM, Strain/Indicator: TA98, Metabolic Activation: RAT, LIVER, S-9, PCB, Method: PREINCUBATION
  mutagenic call: inactive; negative
[2]
  mutagenic call: inactive; negative
Test System: AMES SALMONELLA TYPHIMURIUM, Strain/Indicator: TA100, Metabolic Activation: RAT, LIVER, S-9, PCB, Method: PREINCUBATION
  mutagenic call: inactive; negative

## CCOc1cccc([N+](=O)[O-])c1
[3]
  mutagenic call: inactive; negative
Test System: AMES SALMONELLA TYPHIMURIUM, Strain/Indicator: TA98, Method: PREINCUBATION
  mutagenic call: inactive; negative
[2]
  mutagenic call: inactive; negative
Test System: AMES SALMONELLA TYPHIMURIUM, Strain/Indicator: TA100, Method: PREINCUBATION
  mutagenic call: inactive; negative
Test System: AMES SALMONELLA TYPHIMURIUM, Strain/Indicator: TA1535, Metabolic Activation: NONE, Method: PREINCUBATION
  mutagenic call: inactive; negative
Test System: AMES SALMONELLA TYPHIMURIUM, Strain/Indicator: TA1535, Method: PREINCUBATION
  mutagenic call: inactive; negative
Test System: AMES SALMONELLA TYPHIMURIUM, Strain/Indicator: TA1537, Metabolic Activation: NONE, Method: PREINCUBATION
  mutagenic call: inactive; negative
Test System: AMES SALMONELLA TYPHIMURIUM, Strain/Indicator: TA1537, Method: PREINCUBATION
  mutagenic call: inactive; negative
Test System: AMES SALMONELLA TYPHIMURIUM, Strain/Indicator: TA1538, Metabolic Activation: NONE, Method: PREINCUBATION
  mutagenic call: inactive; negative
Test System: AMES SALMONELLA TYPHIMURIUM, Strain/Indicator: TA1538, Method: PREINCUBATION
  mutagenic call: inactive; negative

## COc1ccc(/C=C/c2cc(OC)cc(=O)o2)cc1
Test System: Mouse lymphoma cells, Strain/Indicator: L5178Y ( tk+/tk-), Metabolic Activation: Human, Liver, S-9, Method: Suspension/plate
  mutagenic call: inactive; negative
